# In patent US20020052000A1, “Diagnostics for and mediators of inflammatory disorders” (priority 1996, published 2002):
# B1: soybean lipoxygenase (protein, UniProt P08170 1-839, looked up)
# Seed linoleate …: MFSAGHKIKGTVVLMPKNELEVNPDGSAVDNLNAFLGRSVSLQLISATKADAHGKGKVGKDTFLEGINTSLPTLGAGESAFNIHFEWDGSMGIPGAFYIKNYMQVEFFLKSLTLEAISNQGTIRFVCNSWVYNTKLYKSVRIFFANHTYVPSETPAPLVSYREEELKSLRGNGTGERKEYDRIYDYDVYNDLGNPDKSEKLARPVLGGSSTFPYPRRGRTGRGPTVTDPNTEKQGEVFYVPRDENLGHLKSKDALEIGTKSLSQIVQPAFESAFDLKSTPIEFHSFQDVHDLYEGGIKLPRDVISTIIPLPVIKELYRTDGQHILKFPQPHVVQVSQSAWMTDEEFAREMIAGVNPCVIRGLEEFPPKSNLDPAIYGDQSSKITADSLDLDGYTMDEALGSRRLFMLDYHDIFMPYVRQINQLNSAKTYATRTILFLREDGTLKPVAIELSLPHSAGDLSAAVSQVVLPAKEGVESTIWLLAKAYVIVNDSCYHQLMSHWLNTHAAMEPFVIATHRHLSVLHPIYKLLTPHYRNNMNINALARQSLINANGIIETTFLPSKYSVEMSSAVYKNWVFTDQALPADLIKRGVAIKDPSTPHGVRLLIEDYPYAADGLEIWAAIKTWVQEYVPLYYARDDDVKNDSELQHWWKEAVEKGHGDLKDKPWWPKLQTLEDLVEVCLIIIWIASALHAAVNFGQYPYGGLIMNRPTASRRLLPEKGTPEYEEMINNHEKAYLRTITSKLPTLISLSVIEILSTHASDEVYLGQRDNPHWTSDSKALQAFQKFGNKLKEIEEKLVRRNNDPSLQGNRLGPVQLPYTLLYPSSEEGLTFRGIPNSISI
# notes: unmodified soybean lipoxygenase, negative control
# Columns and labels:
# E-selectin = conditions: human aortic endothelial cells; cited from earlier work
# ICAM-1 [1] = conditions: human aortic endothelial cells; cited from earlier work
# VCAM-1 [2] = conditions: cited from earlier work; for induction of cell-surface expression of VCAM-1: human aortic endothelial cells
# ICAM-1 [3] = assay: Cell surface ICAM-1 expression on HAEC by ELISA; type: cell-based, human; conditions: for induction of cell surface ICAM expression: HAEC exposed 16 hr
# Protocol: In a small scale synthesis reaction, sLO converted 250 uM linoleic acid (LA) into 13-HpODE within the first hour of room temperature incubation. During the subsequent 3 days incubation, 13-HpODE presumably oxidatively modified the enzyme and generating epitopes on the enzyme which can elicit biological s activity such as the expression of cell surface ICAM on HAEC as shown in ELISA assay depicted in FIG. 11. […] In the large scale synthesis reaction, only in the presence of the 13-HpODE generating system did the sLO become active as shown in FIG. 12. sLO negative control represented the sLO enzyme incubated with buffer alone for the extended period of time. We have confirmed the oxSLO synthesized by either method are functionally and immunologically identical. Furthermore, we have determined that formation of a biologically activity is protein specific. Reaction of rabbit serum albumin using the large or small scale oxykine reaction generates immunoreactive but not biologically active products.
# (§1) It was investigated whether the oxidative modification of rabbit serum albumin RSA by linoleic hydroperoxide alters the structural or biological property of an element (peptide or nonpeptide) in this material, conferring upon it a biological function as a vascular endothelial cell inflammatory signal. Using oxidatively modified RSA (oxRSA) prepared as described in Example 1, cultured human aortic endothelial cells were exposed for 12 hours with a range of oxRSA concentrations from 1 to 100 nM (nanomolar), and assayed for the cell surface expression of the inducible adhesion molecules VCAM-1, ICAM-1 or the constituitively expressed adhesion molecule ICAM-2 by ELISA assay. […] Furthermore, limulus assay for LPS in the oxRSA preparation was below detection. Constituitively expressed ICAM-2 was unaffected.
# anti-LOOH/RSA antibody = assay: ELISA recognition of modified proteins/peptides by anti-LOOH/RSA antibody; type: binding, rabbit
# Protocol: Using ELISA, it was investigated whether the LOOH/RSA antibody recognized the LOOH/modified protein and unmodified protein. Unmodified IgG-free RSA was used as control. incubation at 37° C., wells were washed with PBS three times. Goat anti-rabbit IgG conjugated with alkaline phosphatase was diluted to 1:38,000 and added. After 2 hrs incubation at 37 °C, wells were washed again and p-nitrophenolphosphate was added. Color development was determined by a plate reader (Anthos II).
# Microtiter wells were coated with increasing concentrations of unmodified, or modified peptide. After blocking wells with non-fat milk powder, 100 μl of 1:250 dilution of anti-LOOH/RSA antibody was added to each well. After wash, anti-rabbit IgG conjugated with alkaline phosphatase was added to each well. After adding substrate p-nitrophenyl phosphate, the OD was measured at 405 nm using a microplate reader. Values represent averages of a triplicate set of optical density readings of wells from one of at least 2 separate trials. 20 Western blot analysis of the aldehyde- and LOOH-modified peptide confirmed that none of the aldehyde-modified synthetic proteins were recognized to any significant extent, whereas LOOH-modified peptide was recognized by the antibody.
# VCAM-1 [4] = assay: Cell surface VCAM-1 expression on HAEC by ELISA; type: cell-based, human
# Text: (§2) The ELISA data is supported by the Northern Blot data as illustrated in FIG. 15. […] Within 2-6 hr of stimulation, the mRNA level of the indicated genes all reached a steady state.
# as §1
# [5] = tested on: NF-kB like DNA binding activity; assay: Gel mobility shift assay, NF-kB-like binding sites of VCAM-1 promoter; type: cell-based, human; conditions: HAEC, two hours; TNFa 100 U/ml or oxRSA 25 nM
# Protocol: To determine whether oxRSA modulated nuclear regulatory events associated with redox sensitive VCAM-1 gene expression, cultured human aortic endothelial cells were exposed or not (CTL) for two hours to TNFa (100 U/ml) or 25 nM of the oxykine RSA-LOOH (oxRSA), nuclear extracts prepared and gel mobility shift assays performed using 32P-labeled kL0kR, the tandem NF-kB-like binding sites of the human VCAM-1 promoter. Appropriate cold competitor and supershift controls using anti-p50 and anti-p65 antisera (R&D Systems) were performed to establish the DNA sequence binding specificity of the NF-kB complex band. Both TNF and oxRSA inducted NF-kB like DNA binding activity.
# ICAM-2 = assay: Cell surface ICAM-2 expression on HAEC by ELISA; type: cell-based, human; conditions: 12 hours
# Protocol: as §1
# ICAM-1 mRNA = assay: Northern blot ICAM-1 mRNA accumulation in HAEC; type: cell-based, human
# Protocol: as §2
# (§3) It was next investigated whether the induction of VCAM-1 and ICAM-1 cell surface expression by ox-RSA is due at least in part to changes in mRNA accumulation. Northern filter analysis was performed from RNA isolated from HAEC exposed for 4 hours With either TNFa (100 U/ml) or oxRSA (25 nM). Similar to that observed at the protein level, VCAM-mRNA levels were induced by ox-RSA to levels approximately 30-40% observed for TNFa.
# VCAM-1 mRNA = assay: Northern blot VCAM-1 mRNA accumulation in HAEC; type: cell-based, human
# Protocol: as §2, §3
# MCP-1 mRNA = assay: Northern blot MCP-1 mRNA accumulation in HAEC; type: cell-based, human
# Text: as §2
# [6] = VCAM-1 and ICAM-1 induction, polymyxin B 10 ug/ml
molecule,measurement,setting,value
CCCCC/C=C\C/C=C\C/C=C\C/C=C\CCCC(=O)O [arachidonic acid],induction of cell-surface expression of E-selectin,E-selectin,not
same,induction of cell-surface expression of ICAM-1,ICAM-1 [1],not
same,induction of cell-surface expression of VCAM-1,VCAM-1 [2],induce
CCCCCCCCCCCCCCCCCC(=O)O [stearic acid],induction of cell-surface expression of E-selectin,E-selectin,do not induce
same,induction of cell-surface expression of ICAM-1,ICAM-1 [1],do not induce
same,induction of cell-surface expression of VCAM-1,VCAM-1 [2],do not induce
"S=C(S)N1CCCC1 [PDTC, pyrrolidine dithiocarbamate]",effect on induction of VCAM-1 by PUFAs and their fatty acid hydroperoxides,VCAM-1 [2],suppressed
CC(C)(Sc1cc(C(C)(C)C)c(O)c(C(C)(C)C)c1)Sc1cc(C(C)(C)C)c(O)c(C(C)(C)C)c1 [probucol],effect of addition on ICAM-1 induction by the oxykine,ICAM-1 [3],no effect
linoleyl 194 hydroperoxide,induction of cell-surface expression of E-selectin,E-selectin,not
same,induction of cell-surface expression of ICAM-1,ICAM-1 [1],not
same,induction of cell-surface expression of VCAM-1,VCAM-1 [2],induce
"CCCCC/C=C\C/C=C\CCCCCCCC(=O)O [LA, linoleic acid]",induction of cell-surface expression of E-selectin,E-selectin,not
same,induction of cell-surface expression of ICAM-1,ICAM-1 [1],not
same,induction of cell surface ICAM expression,ICAM-1 [3],did not become active
same,induction of cell-surface expression of VCAM-1,VCAM-1 [2],induce
YVTKSYNETKIKFDKYKAKSHEDEL [Native peptide],recognition by the antibody in ELISA,anti-LOOH/RSA antibody,failed to recognize
CCCCCCCC/C=C\CCCCCCCC(=O)O [oleic acid],induction of cell-surface expression of E-selectin,E-selectin,do not induce
same,induction of cell-surface expression of ICAM-1,ICAM-1 [1],do not induce
same,induction of cell-surface expression of VCAM-1,VCAM-1 [2],do not induce
O=C(O)CN(CCN(CC(=O)O)CC(=O)O)CC(=O)O [EDTA],effect of addition on ICAM-1 induction by the oxykine,ICAM-1 [3],no effect
Cc1c(C)c2c(c(C)c1O)CCC(C)(C(=O)O)O2 (centres unmarked) [Trolox],effect of addition on ICAM-1 induction by the oxykine,ICAM-1 [3],no effect
polymyxin B,effect on LPS induction,VCAM-1 [4]; [6],fully inhibited
same,effect on oxRSA activation,VCAM-1 [4]; [6],no effect
RSA: unmodified IgG-free rabbit serum albumin used as control,recognition by the antibody in ELISA,anti-LOOH/RSA antibody,barely recognized
"oxRSA: rabbit serum albumin oxidatively modified by linoleic hydroperoxide (13-HPODE), Example 1",NF-kB like DNA binding activity,[5],inducted
same,effect on constitutively expressed ICAM-2,ICAM-2,unaffected
same,induction of ICAM-1 as percent of maximal TNF-a induced signal,"ICAM-1 [3]; HAEC, 12 hours, 1 to 100 nM",80%
same,EC50,"ICAM-1 [3]; HAEC, 12 hours, read-out: approximate EC50 for ICAM-1 induction",10 to 15 nM
same,ICAM-1 mRNA induction,"ICAM-1 mRNA; 4 hours, 25 nM",induced
same,induction of VCAM-1 as percent of maximal TNF-a induced signal,"VCAM-1 [4]; HAEC, 12 hours, 1 to 100 nM",40%
same,EC50,"VCAM-1 [4]; HAEC, 12 hours, read-out: approximate EC50 for VCAM-1 induction",10 to 15 nM
same,VCAM-mRNA level relative to that observed for TNFa,"VCAM-1 mRNA; 4 hours, 25 nM, TNFa 100 U/ml",30-40%
same,concentration corresponding to least amount recognized,anti-LOOH/RSA antibody,< 2 nM
same,least amount recognized by the antibody,"anti-LOOH/RSA antibody; antibody 1:250, above control protein",10 ng
B1,MCP-1 mRNA,MCP-1 mRNA; 0.008 ug/ml,1.12 arbitrary units
same,MCP-1 mRNA,MCP-1 mRNA; 0.08 ug/ml,3.1 arbitrary units
same,MCP-1 mRNA,MCP-1 mRNA; 0.8 ug/ml,12.34 arbitrary units
same,MCP-1 mRNA accumulation,MCP-1 mRNA; Northern blot,not
same,induction of cell surface ICAM expression,ICAM-1 [3],did not become active
same,induction of cell surface ICAM expression,ICAM-1 [3]; listed as unmodified sLO,failed to activate
same,ICAM-1 mRNA,ICAM-1 mRNA; 0.008 ug/ml,−0.51 arbitrary units
same,ICAM-1 mRNA,ICAM-1 mRNA; 0.08 ug/ml,−0.09 arbitrary units
same,ICAM-1 mRNA,ICAM-1 mRNA; 0.8 ug/ml,3.14 arbitrary units
same,VCAM-1 mRNA,VCAM-1 mRNA; 0.008 ug/ml,−0.14 arbitrary units
same,VCAM-1 mRNA,VCAM-1 mRNA; 0.08 ug/ml,0.12 arbitrary units
same,VCAM-1 mRNA,VCAM-1 mRNA; 0.8 ug/ml,3.36 arbitrary units
same,VCAM mRNA accumulation,"VCAM-1 mRNA; Northern blot, 4 hr",not
